Here are results for three substances from patent US7169567B1, “Screening assay utilizing the PTH receptor” (The General Hospital Corporation, priority 1998, dated 2007).

Where no end group is shown, it is not given here.

Holding throughout (type): cell-based
In experiment [1] the target is T1, intact rat PTH-1 receptor (rWT-HA) (Rattus norvegicus, UniProt P25961).
T1 construct: expressed in transfected cells; host or cells: COS-7, transient (DEAE-dextran), pCDNA-1 based plasmid
T1 sequence (P25961 23-591 E93Y/N94P/K95Y/T99D/G100Y/S101A limits assumed): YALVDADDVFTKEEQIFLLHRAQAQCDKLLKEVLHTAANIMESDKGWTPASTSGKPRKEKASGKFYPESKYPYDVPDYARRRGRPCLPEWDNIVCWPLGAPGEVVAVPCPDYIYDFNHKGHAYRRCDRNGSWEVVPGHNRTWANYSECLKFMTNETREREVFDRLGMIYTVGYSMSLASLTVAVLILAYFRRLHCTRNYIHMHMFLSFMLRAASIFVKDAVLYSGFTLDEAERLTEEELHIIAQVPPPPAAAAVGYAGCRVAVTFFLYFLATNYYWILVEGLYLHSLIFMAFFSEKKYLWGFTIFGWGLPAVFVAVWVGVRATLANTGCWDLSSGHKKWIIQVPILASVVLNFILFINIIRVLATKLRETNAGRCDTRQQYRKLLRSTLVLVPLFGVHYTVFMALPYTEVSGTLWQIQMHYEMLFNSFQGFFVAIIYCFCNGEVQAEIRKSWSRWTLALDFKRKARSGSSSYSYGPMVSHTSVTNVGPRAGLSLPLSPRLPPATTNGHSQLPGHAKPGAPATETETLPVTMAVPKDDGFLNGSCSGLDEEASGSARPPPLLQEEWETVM
As to the kind of experiment: cAMP inhibition assay in COS-7 cells expressing rWT-HA. To be noted: antagonist 10 mM. The protocol: (§1) FIG. 7. Antagonist Properties of PTHrP(7–34) with PTH(1–14). COS-7 cells transfected with rWT-HA (A) or rΔNt (B) were treated with the antagonist [Leu11,D-Trp12]hPTHrP(7–34)NH2 (or buffer alone), for 5 min at 22EC, followed by 10 ml of either rPTH(1–34) or rPTH(1–14) agonist peptide. Incubations were continued for 30 min at 21° C. and the resulting cAMP levels were measured by RIA, as described in Experimental Procedures. The final concentration of antagonist peptide present during the incubation was 10 mM. Shown are data from a single experiment performed in triplicate. A repeat of the same experiment yielded equivalent results.
For cAMP inhibition assays, transfected COS-7 cells were rinsed once with 500 ml of binding buffer, and 200 ml of IBMX buffer and 100 ml of binding buffer or binding buffer containing the antagonist [Leu11,D-Trp12]hPTHrP(7–34) NH2 (10 mM) were added. After a 5 minute incubation at room temperature, 10 ml of binding buffer containing PTH(1–14) or PTH(1–34) (agonist peptide) was added, and the incubation was continued for an additional 30 minutes. The cells were then lysed and intracellular cAMP levels were measured as described above. […]

The target in experiment [2] is T2, truncated rat PTH-1 receptor (rΔNt) (Rattus norvegicus, UniProt P25961, E586G).
T2 construct: contains an open reading frame encoding a protein of about 435 amino acid residues; expressed in transfected cells; host or cells: COS-7, transient (DEAE-dextran), pCDNA-1 based plasmid
T2 sequence (P25961 with tags, fused parts or gaps E586G): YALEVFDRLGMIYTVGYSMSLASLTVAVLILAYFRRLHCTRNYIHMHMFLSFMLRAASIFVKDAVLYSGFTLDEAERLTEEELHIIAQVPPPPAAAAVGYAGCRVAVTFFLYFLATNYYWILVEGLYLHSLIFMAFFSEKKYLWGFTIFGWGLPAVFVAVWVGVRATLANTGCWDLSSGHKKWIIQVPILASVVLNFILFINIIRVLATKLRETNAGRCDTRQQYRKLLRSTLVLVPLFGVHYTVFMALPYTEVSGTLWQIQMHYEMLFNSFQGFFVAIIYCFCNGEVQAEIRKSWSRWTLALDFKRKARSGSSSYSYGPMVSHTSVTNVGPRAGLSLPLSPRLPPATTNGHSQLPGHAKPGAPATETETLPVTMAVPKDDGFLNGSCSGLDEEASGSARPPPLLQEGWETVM
As to the kind of experiment: cAMP inhibition assay in COS-7 cells expressing rΔNt. The protocol:
as §1
For cAMP inhibition assays, transfected COS-7 cells were rinsed once with 500 ml of binding buffer, and 200 ml of IBMX buffer and 100 ml of binding buffer or binding buffer containing the antagonist [Leu11,D-Trp12]hPTHrP(7–34) NH2 (10 mM) were added. After a 5 minute incubation at room temperature, 10 ml of binding buffer containing PTH(1–14) or PTH(1–34) (agonist peptide) was added, and the incubation was continued for an additional 30 minutes. The cells were then lysed and intracellular cAMP levels were measured as described above.
In order to determine whether [Leu11,D-Trp12]hPTHrP(7–34)NH2, a potent competitive antagonist of PTH(1–34) action (Nutt, R. F., et al., Endocrinology 127:491–493 (1990)), could block the ability of PTH(1–14) to stimulate cAMP formation in COS-7 cells expressing either rWT-HA or rΔNt (FIG. 6). With rWT-HA the inhibitor peptide reduced the efficacy of both PTH(1–14) and PTH(1–34) by as much as 70% as compared to the responses elicited by these agonists in the absence of inhibitor (FIG. 6A).

Experiment [3] concerns the target T2, truncated rat PTH-1 receptor (rΔNt). As to the kind of experiment: cAMP response in COS-7 cells transiently transfected with truncated rat PTH-1 receptor (rΔNt). To be noted: secretin(1–27) 1 mM. The text has this:
FIG. 4. PTH Responses of Intact and Truncated PTH-1 Receptors in COS-7 Cells. Shown at the top are schematics of the intact (A) and truncated (B) rat PTH-1 receptors used for transient transfection of COS-7 cells, and subsequent cAMP response assays. The conserved extracellular cysteine residues are depicted as open circles and numbered according to sequence position, and the nine amino acids of the epitope tag (HA) in rWT-HA are shaded. The tics at residue 26 and 181 indicate the endpoints of the deletion in rΔNt. Based on the predicted signal peptide cleavage site at Ala-22, residues 23–25 in rΔNt are joined to residue 182. The cAMP responses of COS-7 cells expressing the intact receptor (C) and rΔNt (D) to rPTH(1–34) (J) or rPTH(1–14) (C) are also shown. The graphs show combined data (mean±s.e.m.) from five separate experiments, each performed in duplicate. […]
FIG. 6. Specificity of the Truncated Ligand and PTH Receptor. COS-7 cells transiently transfected with either rWT-HA (A), rΔNt (B), or the intact rat secretin receptor (C), were treated with the indicated peptides for 60 min at 22° C., and the resulting intracellular cAMP levels were quantified by RIA. Concentration of peptides present during the incubations were: rPTH(1–34), 0.1 mM; rPTH(1–14) 100 mM; secretin(1–27). […] Shown are data (mean±s.e.m.) from one experiment performed in duplicate, and this was repeated twice more with equivalent results.
For studies with the intact and truncated rat PTH-1 receptors, transient transfections of COS-7 cells were performed using DEAE-dextran as described previously (Bergwitz, C., et al., J. Biol. Chem. 272:28861–28868)). The construction and initial characterization of the pCDNA-1 based plasmids encodin either the intact or truncated rat PTH-1 receptor has been described previously (Lee, C., et al., Endocrinology 135(4):1488–1495)). […] The truncated rat PTH-1 receptor (rΔNt) is deleted for exons E1 through exon G (residues 26 to 181). Assuming that signal peptidase cleavage occurs between Ala-22 and Tyr-23 (Nielsen, H., et al., Protein Engineering 10:1–6 (1997)), rΔNt is predicted to have for its N-terminus residues Dautzenberg, F., et al., Proc. Natl. Acad. Sci. 95:4941–4946 (1998); Holtmann, M., et al., J. Biol. Chem. 270:14394–14398 (1995); DeAlmeida, V. and Mayo, K., Mol. Endo. 12:750–765 (1998)) joined to Glu-182 (FIG. 3B). COS-7 cells were transfected in 24-well plates when the cells were 85 to 95% of confluency, using 200 ng of plasmid DNA that was purified by cesium chloride/ethidium bromide gradient centrifugation for each well. Assays were conducted 72 to 96 hours after transfection. Under these conditions about ˜20% of the COS-7 cells become transfected and express about 5×10^6 surface PTH receptors per cell (Bergwitz, C., et al., J. Biol. Chem. 272:28861–28868)).
(§2) Intracellular cyclic AMP: Transfected COS-7 or HKRK-B7 cells were rinsed with 500 ml of binding buffer, (50 mM Tris-HCl, pH 7.7, 100 mM NaCl, 5 mM KCl, 2 mM CaC12, 5% heat-inactivated horse serum, 0.5% heat-inactivated fetal bovine serum) and 200 ml of IBMX buffer (DMEM containing 2 mM IBMX, 1 mg/ml bovine serum albumin, 35 mM Hepes-NaOH, pH 7.4) and […] of binding buffer or binding buffer containing various amounts of peptide were added. The plates were incubated for 60 minutes at room temperature. The buffer was then withdrawn and the cells were frozen on dry ice, treated with 0.5 ml of 50 mM HCl, and refrozen. After the thawing, the lysate was diluted 30-fold in dH20 and an aliquot was analyzed for cAMP content by determined radioimmunoassay using unlabeled cAMP as a standard.
Experiments utilized COS-7 cells transfected with either the intact rat PTH-1 receptor (rWT-HA, FIG. 4A) or a truncated rat PTH-1 receptor with most of the amino-terminal extracellular domain deleted (rΔNt, FIG. 4B).

In a further experiment the target is T3, rat secretin receptor (Rattus norvegicus, UniProt P23811).
T3 construct: expressed in transfected cells; host or cells: COS-7, transient
The experiment is described as follows: cAMP response in COS-7 cells transfected with the rat secretin receptor. To be noted: secretin(1–27) 1 mM; COS-7 cells transfected with the secretin receptor. How it is done: FIG. 6. Specificity of the Truncated Ligand and PTH Receptor. COS-7 cells transiently transfected with either rWT-HA (A), rΔNt (B), or the intact rat secretin receptor (C), were treated with the indicated peptides for 60 min at 22° C., and the resulting intracellular cAMP levels were quantified by RIA. […] 1 mM and secretin(1–13), 100 mM. Shown are data (mean±s.e.m.) from one experiment performed in duplicate, and this was repeated twice more with equivalent results.
as §2
In order to test whether PTH(1–14) and rΔNt retained the appropriate recognition specificity for the corresponding parent ligand, cross-reactivity experiments were done using secretin ligands and the cloned rat secretin receptor. […] Cells expressing rΔNt responded to PTH(1–34) and PTH(1–14) but not to secretin(1–27) (1 mM) or secretin(1–13) ([…]) (FIG. 5B). Thus, the recognition specificity of PTH(1–14) and rΔNt appear to replicate that of the intact parent molecules. No evidence for relaxed specificity was detected in these studies (FIG. 6).

Where [4] appears, read: cells expressing rΔNt, antagonist 10 mM.

T3 sequence (P23811 26-449): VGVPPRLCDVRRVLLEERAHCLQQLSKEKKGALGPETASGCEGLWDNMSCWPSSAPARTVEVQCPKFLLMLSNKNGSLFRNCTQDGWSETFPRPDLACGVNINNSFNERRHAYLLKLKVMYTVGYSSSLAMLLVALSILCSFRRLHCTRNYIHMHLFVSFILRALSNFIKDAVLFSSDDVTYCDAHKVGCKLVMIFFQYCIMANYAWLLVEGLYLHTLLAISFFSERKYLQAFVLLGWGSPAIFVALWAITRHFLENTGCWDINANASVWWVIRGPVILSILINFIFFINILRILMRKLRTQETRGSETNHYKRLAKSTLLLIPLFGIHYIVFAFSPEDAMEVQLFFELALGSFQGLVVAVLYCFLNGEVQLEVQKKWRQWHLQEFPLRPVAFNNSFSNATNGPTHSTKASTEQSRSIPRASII

For “[Leu^11,D-Trp^12]hPTHrP(7–34)NH2 [[Leu11,D-Trp12]hPTHrP(7–34)NH2]”, the “reduction of efficacy of PTH(1–14) (cAMP) compared to response in absence of inhibitor” value in experiment [1] (agonist PTH(1–14)) is no more than 70%. Also, the “reduction of efficacy of PTH(1–34) (cAMP) compared to response in absence of inhibitor” value in experiment [1] (agonist PTH(1–34)) is on record as no more than 70%. In addition, in experiment [2] (setting [4]), the “effect on the ability of PTH(1–14) to stimulate cAMP production” value is “little or no effect” and the “effect on the ability of PTH(1–34) to stimulate cAMP production” value is “little or no effect”. Moreover, in experiment [2] (rΔNt), the “function as an antagonist with rΔNt” value was “inability”.

Turning to “secretin(1–13): truncated secretin ligand used in cross-reactivity experiments (HSDGTFTSELSRL; not fully specified (C-terminus); ends and bridges not checked; UniProt P09683 28-40, looked up, fragment)”, the “cAMP response of cells expressing rΔNt (in words)” value in experiment [3] is “not”.

“secretin(1–27): secretin ligand used in cross-reactivity experiments”: in the experiment with rat secretin receptor, the “increase in cAMP levels” value came to 50 fold. For the same substance, in experiment [3], the “cAMP response of cells expressing rΔNt (in words)” value was “not”.
